Measured values published in patent US20250223297A1, “NOVEL RAPAMYCIN DERIVATIVES” (Novartis AG, priority 2017, published 2025).

Key:
[1] = system: mTORC1 signaling (pS6 Ser240/244) in MEF TSC1−/− cells; assay: MEF TSC1-/- cell based assay for rapalog potency (pS6); design: species or system mouse; settings: 2 h treatment, average from multiple assays
Text: Potency of mTOR inhibitors may also be determined using a MEF TSC1−/− cell-based assay. MEF TSC1−/− cells are Mouse Embryonic Fibroblasts deficient in the Tuberous sclerosis protein, TSC1, which negatively regulates mTORC1 signaling. Thus, the deficiency of TSC1 induces constitutive mTORC1 activation, resulting in phosphorylation (activation) of the downstream proteins in the mTORC1 signaling pathways. This cell-based assay is used to measure inhibition (de-phosphorylation) of the mTORC1 signaling components S6 and 4EBP1, by rapalogs or other mTOR inhibitors.
The assay is typically carried out as follows: MEF TSC1−/− cells are plated on Poly-D-lysine coated 384 well Griener clear bottom plates and incubated overnight at 37° C., 5% CO2. […] Cells are fixed with 4% paraformaldehyde for 30 min and washed 5 times with TBS-EDTA followed by immuno-staining with florescent tag labeled antibodies for pS6 and p4EBP1. Nuclei are visualized with Hoechst staining. Cells are imaged using respective florescence channels and the potency of mTOR inhibitors is defined by pS6 IC50 (nM).
Cell-based assay for rapalog potency determination. Rapalog potency was determined using MEF TSC1−/− cell based assay. MEF TSC1−/− cells are Mouse Embryonic Fibroblasts deficient in Tuberous sclerosis protein-TSC1, which negatively regulates mTORC1 signaling and thus display constitutive mTORC1 activation, resulting in phosphorylation (activation) of downstream molecules. This cell-based assay is used to measure inhibition (de-phosphorylation) of S6 and 4EBP1 by rapalogs or other mTOR inhibitors.
MEF TSC1−/− cells were plated on Poly-D-lysine coated 384 well Griener clear bottom plates and incubated overnight at 37° C., 5% CO2. […] Nuclei were visualized with Hoechst (ThermoFisher Scientific #H3570) staining. Cells were imaged (InCell 600) using respective fluorescence channels and the potency of mTOR inhibitors was defined by pS6 IC50 (nM).
In vitro potency of mTOR inhibitors was defined by pS6 IC50 (nM) in MEF TSC1−/− cells.
IC50 values are calculated as the average from multiple assays.

FKBP52 = FKBP52 (Homo sapiens (Human), UniProt Q02790); assay: SPR assay, binding affinity to FKBP52; settings: single-cycle kinetics
Protocol: (§1) SPR Assay to Determine Binding Affinity to FK506-Binding Proteins (FKBP). N-terminal avi-his6 tagged FKBP fusions to FKBP12, FKBP51 and FKBP52 were expressed in E. coli and purified using standard chromatography. Each protein was subsequently immobilized on a streptavidin chip in a Biacore 8K SPR instrument (GE Healthcare). Using single-cycle kinetics, compound titrations were flowed at 45 uL/min over each surface using 2-minute association and 30-minute dissociation phases in a buffer containing 50 mM Tris pH 7.5/150 mM NaCl/0.01% Tween 20/1 mM DTT/2% DMSO. The data was fit using low molecular weight (LMW) single-cycle kinetics. The equilibrium dissociation constants (KD) are reported. […]

FKBP12 = FKBP12 (Homo sapiens (Human), UniProt P62942); assay: SPR assay, binding affinity to FKBP12; settings: single-cycle kinetics
Protocol: as §1

[2] = system: S6K1 (Thr389) phosphorylation (mTORC1 activity) in FKBP12 knock-down 293T cells; assay: S6K1 (Thr389) phosphorylation ELISA in FKBP12 knock-down 293T cells; assay type: cell-based; settings: 2 h, relative to DMSO
[3] = system: S6K1 (Thr389) phosphorylation (mTORC1 activity) in WT 293T cells; assay: S6K1 (Thr389) phosphorylation ELISA in wild-type 293T cells; assay type: cell-based; settings: 2 h, relative to DMSO
Protocol: WT, FKBP12 knock-down and FKBP12 knock-out 293T cells were plated at a density of 30,000 cells per well in poly-D-Lysine coated 96-well plates (Corning, #354461) in Dulbecco's modified Eagle's medium (ThermoFisher, #11995-065) supplemented with 10% fetal bovine serum (ThermoFisher, #16140-071). Cells were incubated at 37° C., 5% CO2 for 48 hours until they reached ˜80% confluence. […] Media supplemented with blank Dimethyl sulfoxide (DMSO) was used as a control for both compounds. Phosphorylated amounts of S6K1 (Thr389) were detected by a sandwich ELISA kit (Cell signaling, #7063C) following the manufacture's protocol.
S6K1 is a downstream target of mTORC1 and phosphorylation of its rapalog-sensitive Thr389 site is used as a functional readout of mTORC1 activity. Lee, C. H., Inoki, K. and Guan, K. L. (2007). mTOR pathway as a target in […]. Annu. Rev. Pharmacol. Toxicol. 47. 443-467. […] In FKBP12 knock-out cells. […] Such specificity of Example 2 to FKBP12 may facilitate targeting cells and tissues with relatively high levels of FKBP12 expression, while avoiding (or minimizing) side effects in the tissues where FKBP12 is weakly expressed.

[4] = system: S6K1 (Thr389) phosphorylation (mTORC1 activity) in FKBP12 knock-out 293T cells; assay: S6K1 (Thr389) phosphorylation ELISA in FKBP12 knock-out 293T cells; assay type: cell-based; settings: 2 h, relative to DMSO

FKBP12, sequence (P62942 whole entry): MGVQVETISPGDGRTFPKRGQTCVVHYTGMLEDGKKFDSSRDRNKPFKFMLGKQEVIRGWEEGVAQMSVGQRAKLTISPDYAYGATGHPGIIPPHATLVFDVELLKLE
FKBP52, sequence (Q02790 whole entry, the tested form may be a part): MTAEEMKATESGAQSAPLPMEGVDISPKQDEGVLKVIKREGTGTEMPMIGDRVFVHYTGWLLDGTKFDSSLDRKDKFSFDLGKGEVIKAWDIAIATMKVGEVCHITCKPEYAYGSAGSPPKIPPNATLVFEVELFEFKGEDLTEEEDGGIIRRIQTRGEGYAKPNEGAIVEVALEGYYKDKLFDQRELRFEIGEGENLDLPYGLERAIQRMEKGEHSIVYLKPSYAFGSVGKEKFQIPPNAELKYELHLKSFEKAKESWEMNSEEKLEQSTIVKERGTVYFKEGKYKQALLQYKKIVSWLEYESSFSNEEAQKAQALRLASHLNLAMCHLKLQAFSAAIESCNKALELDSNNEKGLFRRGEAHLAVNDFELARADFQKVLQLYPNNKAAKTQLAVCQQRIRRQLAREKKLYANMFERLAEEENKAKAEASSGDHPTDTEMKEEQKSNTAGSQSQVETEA

Row | IC50 ([1]; Mus musculus, 2 h) | IC50 [1] | Kd (FKBP52) | Kd (FKBP12) | SMILES | other results
1 | 153 nM |  |  |  | CO[C@@H]1C[C@H](C[C@@H](C)[C@@H]2CC[C@H](C)/C=C(\C)[C@@H](O)[C@@H](OC)C(=O)[C@H](C)C[C@H](C)/C=C/C=C/C=C(\C)C(N3CCN(CCO)C3=O)C[C@@H]3CC[C@@H](C)[C@@](O)(O3)C(=O)C(=O)N3CCCC[C@H]3C(=O)O2)CC[C@H]1O (single isomer, unassigned) [Example 5] | 
2 | 0.17 nM |  |  |  | CO[C@@H]1C[C@H](C[C@@H](C)[C@@H]2CC[C@H](C)/C=C(\C)[C@@H](O)[C@@H](OC)C(=O)[C@H](C)C[C@H](C)/C=C/C=C/C=C(\C)C(N3CCS3(=O)=O)C[C@@H]3CC[C@@H](C)[C@@](O)(O3)C(=O)C(=O)N3CCCC[C@H]3C(=O)O2)CC[C@H]1O (single isomer, unassigned) [Example 6, C16-(1,1-dioxido-1,2-thiazetidin-2-yl)-C32-deoxo-rapamycin] | 
3 |  | 0.3 nM |  |  | CO[C@@H]1C[C@H](C[C@@H](C)[C@@H]2CC[C@H](C)/C=C(\C)[C@@H](O)[C@@H](OC)C(=O)[C@H](C)C[C@H](C)/C=C/C=C/C=C(\C)C(N3CCS3(=O)=O)C[C@@H]3CC[C@@H](C)[C@@](O)(O3)C(=O)C(=O)N3CCCC[C@H]3C(=O)O2)CC[C@H]1O (single isomer, unassigned) [Example 7, C16-(1,1-dioxido-1,2-thiazetidin-2-yl)-C32-deoxo-rapamycin] | 
4 |  | 0.328 nM |  |  | CO[C@@H]1C[C@H](C[C@@H](C)[C@@H]2CC[C@H](C)/C=C(\C)[C@@H](O)[C@@H](OC)C(=O)[C@H](C)C[C@H](C)/C=C/C=C/C=C(\C)C(N3CCS3(=O)=O)C[C@@H]3CC[C@@H](C)[C@@](O)(O3)C(=O)C(=O)N3CCCC[C@H]3C(=O)O2)CC[C@H]1OCCO (single isomer, unassigned) [Example 8, C16-(1,1-dioxido-1,2-thiazetidin-2-yl)-C32-deoxo-C40-(2-hydroxyethoxy)-rapamycin] | 
5 |  | 1.45 nM |  |  | CO[C@@H]1C[C@H](C[C@@H](C)[C@@H]2CC[C@H](C)/C=C(\C)[C@@H](O)[C@@H](OC)C(=O)[C@H](C)C[C@H](C)/C=C/C=C/C=C(\C)C(N3CCS3(=O)=O)C[C@@H]3CC[C@@H](C)[C@@](O)(O3)C(=O)C(=O)N3CCCC[C@H]3C(=O)O2)CC[C@H]1OCCO (single isomer, unassigned) [Example 9, C16-(1,1-dioxido-1,2-thiazetidin-2-yl)-C32-deoxo-C40-(2-hydroxyethoxy)-rapamycin] | 
6 |  |  | 176 nM | 1.6 nM | CO[C@@H]1C[C@H](C[C@@H](C)[C@@H]2CC[C@H](C)/C=C(\C)[C@@H](O)[C@@H](OC)C(=O)[C@H](C)C[C@H](C)/C=C/C=C/C=C(\C)C(N3CCS3(=O)=O)C[C@@H]3CC[C@@H](C)[C@@](O)(O3)C(=O)C(=O)N3CCCC[C@H]3C(=O)O2)CC[C@H]1OP(C)(C)=O (single isomer, unassigned) [Example 10, C16-(1,1-dioxido-1,2-thiazetidin-2-yl)-C32-deoxo-C40-dimethylphosphinyl-rapamycin] | 
7 | 0.374 nM |  |  |  | CO[C@@H]1C[C@H](C[C@@H](C)[C@@H]2CC[C@H](C)/C=C(\C)[C@@H](O)[C@@H](OC)C(=O)[C@H](C)C[C@H](C)/C=C/C=C/C=C(\C)C(N3CCS3(=O)=O)C[C@@H]3CC[C@@H](C)[C@@](O)(O3)C(=O)C(=O)N3CCCC[C@H]3C(=O)O2)CC[C@@H]1n1cnnn1 (single isomer, unassigned) [Example 12] | 
8 |  | 0.656 nM |  |  | CO[C@@H]1C[C@H](C[C@@H](C)[C@@H]2CC[C@H](C)/C=C(\C)[C@@H](O)[C@@H](OC)C(=O)[C@H](C)C[C@H](C)/C=C/C=C/C=C(\C)C(N3CCS3(=O)=O)C[C@@H]3CC[C@@H](C)[C@@](O)(O3)C(=O)C(=O)N3CCCC[C@H]3C(=O)O2)CC[C@@H]1n1cnnn1 (single isomer, unassigned) [Example 13] | 
9 | 7.77 nM |  | 542 nM | 16 nM | CO[C@@H]1C[C@H](C[C@@H](C)[C@@H]2CC[C@H](C)/C=C(\C)[C@@H](O)[C@@H](OC)C(=O)[C@H](C)C[C@H](C)/C=C/C=C/C=C(\C)C(N3CCCS3(=O)=O)C[C@@H]3CC[C@@H](C)[C@@](O)(O3)C(=O)C(=O)N3CCCC[C@H]3C(=O)O2)CC[C@H]1OP(C)(C)=O (single isomer, unassigned) [Example 14, C16-(1,1-dioxidoisothiazolidin-2-yl)-C32-deoxo-C40-dimethylphosphinyl-rapamycin] | 
10 | 3.2 nM |  |  |  | CO[C@@H]1C[C@H](C[C@@H](C)[C@@H]2CC[C@H](C)/C=C(\C)[C@@H](O)[C@@H](OC)C(=O)[C@H](C)C[C@H](C)/C=C/C=C/C=C(\C)C(N3CCCS3(=O)=O)C[C@@H]3CC[C@@H](C)[C@@](O)(O3)C(=O)C(=O)N3CCCC[C@H]3C(=O)O2)CC[C@H]1OP(C)(C)=O (single isomer, unassigned) [Example 15, C16-(1,1-dioxidoisothiazolidin-2-yl)-C32-deoxo-C40-dimethylphosphinyl-rapamycin] | 
11 |  |  | 4070 nM | 35 nM | CO[C@@H]1C[C@H](C[C@@H](C)[C@@H]2CC[C@H](C)/C=C(\C)[C@@H](O)[C@@H](OC)C(=O)[C@H](C)C[C@H](C)/C=C/C=C/C=C(\C)[C@H](N3CCCS3(=O)=O)C[C@@H]3CC[C@@H](C)[C@@](O)(O3)C(=O)C(=O)N3CCCC[C@H]3C(=O)O2)CC[C@H]1OCCO [Example 16] | 
12 |  |  | 1760 nM | 500 nM | CO[C@H]1C[C@@H]2CC[C@@H](C)[C@@](O)(O2)C(=O)C(=O)N2CCCC[C@H]2C(=O)O[C@H]([C@H](C)C[C@@H]2CC[C@@H](OCCO)[C@H](OC)C2)CC(=O)[C@H](C)/C=C(\C)[C@@H](O)[C@@H](OC)C(=O)[C@H](C)C[C@H](C)/C=C/C=C/C=C/1C [RAD001, everolimus, reference compound] | maximum inhibition of S6K1 (Thr389) [2]: ~70%; inhibition of S6K1 (Thr389) [3]: ~80%; inhibition of S6K1 (Thr389) phosphorylation [4]: > 60%
